The target in experiment [1] is T1, BK channels (Oryctolagus cuniculus, UniProt Q9BG98).
T1 construct: wherein the native BK channels were more sensitive to Ca^2+; from tissue
The experiment can be described thus: Single channel recordings, inside-out patch clamp, voltage ramps, isolated smooth muscle cells of the rabbit bladder. In kind it is cell-based. Conditions: for effect on BK channel activity, in words (SAR discussion based on V1/2 data): inside out patches on rabbit smooth muscle cells. The method, then: All experiments were approved by the Dundalk Institute of Technology Animal Care and Use Committee. […] The urinary bladder and most proximal 1.5 cm of the urethra was removed and placed in Krebs solution. Strips of bladder tissue, 0.5 cm in width were dissected, cut into 1 mm^3 pieces and stored in Ca^2+-free Hanks' solution for 30 min prior to cell dispersal. Tissue pieces were incubated in dispersal medium containing (per 5 ml) of Ca^2+-free Hanks' solution: 15 mg collagenase (Sigma type 1A), 1 mg protease (Sigma type XXIV), 10 mg bovine serum albumin (Sigma) and 10 mg trypsin inhibitor (Sigma) for 10-15 min at 37° C. Tissue was then transferred to Ca^2+-free Hanks' solution and stirred for a further 10-15 min to release single smooth muscle cells. These were plated in Petri dishes containing 100 μM Ca^2+ Hanks' solution and stored at 4° C. for use within 8 h. During experiments, the dish containing the cells was continuously perfused with Hanks' solution at 36±1° C. Additionally the cell under study was continuously superfused by means of a custom built close delivery system with a pipette of tip diameter 200 μm placed approximately 300 μm from the cell. The high K^+ solution in the close delivery system could be switched to a drug-containing solution with a dead space time of less than 5 s.
For whole cell recordings pipettes were pulled from borosilicate glass capillary tubing (1.5 mm outer diameter, 1.17 mm inner diameter; Clark Medical Instruments) to a tip of diameter approximately 1-1.5 μm and resistance of 2-4 Mohms. For single channel recordings, pipettes were pulled from borosilicate glass capillary tubing (1.5 mm outer diameter, 0.8 mm inner diameter; Clark Medical Instruments) and fire polished before use. Voltage clamp commands were delivered via an Axopatch 1D or Axon 200B patch clamp amplifiers (Axon Instruments) and membrane currents were recorded by a 12 bit AD/DA converter (Axodata 1200 or Labmaster, Scientific Solutions) interfaced to an Intel computer running pCLAMP software.
All values in (mM): KCl, 140. Glucose, 10, EGTA 1 and HEPES, 10. For free Ca^2+ greater than 300 nM: All values in (mM): KCl, 140. Glucose, 10, H-EDTA 1 and HEPES, 10. The same solution composition is used in the bath as in the patch pipette for these experiments except that the pipette solution contained 100 nM Ca^2+.
In single channel experiments voltage commands were applied using pClamp ramped potentials. This allowed more efficient measurement of slope conductance and channel activation than conventional step depolarisations. Activation curves were calculated by averaging current responses to 15 potential ramps and dividing each data point of the averaged current by the single channel amplitude at that holding potential, after leakage current correction. […] This analysis provides a continuous recording of the number of open channels multiplied by the open probability (NPo) over the entire voltage range. To obtain values for the steepness of the voltage-dependent activation and half-maximal activation voltage, activation curves were fitted with Boltzman functions of the form: NPo=n/{1+exp[−K(V−V1/2)]} where N is the number of channels in the patch, n is the maximal NPo level, K^−1 is the steepness of the voltage-dependent activation (change in potential necessary to cause an e-fold increase in activation) and V1/2 is the voltage at which there is half-maximal activation. Again, all of the experiments were carried out at 36±1° C.
The patches were held at a potential of −100 mV and voltage ramps were then applied from −100 mV up to +100 mV over 2 s.
Patches were held at −100 mV and ramped through to +100 mV and each sweep was repeated 15 times. The same protocol was repeated after the patch was incubated in 1 μM Ca^2+.

Experiment [2] addresses T1, BK channels. The experiment can be described thus: Perforated patch whole cell patch clamp, outward BK current in isolated smooth muscle cells. In kind it is cell-based, rabbit. Conditions: 10 μM; steps from −80 mV to +50 mV; holding −60 mV.
Description: The cell membrane was perforated using the antibiotic amphotericin B (600 μg·ml^−1).
Standard Hank's solution is used to bathe the cells in these experiments. Isolated smooth muscle cells from rabbit urethra we held at −60 mV. The test protocol involved stepping from −60 mV to −80 mV for 500 msecs, and then stepping the voltage up in +10 mV increments to +50 mV before returning to the holding potential of −60 mV.
Experiment [3] has as its system L-type calcium channel. As to the kind of experiment: Inward L-type calcium current, perforated patch clamp with Cs+ pipette solution, isolated smooth muscle cells of the rabbit bladder. In kind it is cell-based. Conditions: held at −60 mV, stepped to 0 mV for 500 ms. An excerpt: Using methods described above herein, the patch pipette solution was altered to allow for measurement of inward L-type calcium currents which although present in earlier studies are not visible due to the overwhelming size of the outward BK current. By replacing K^+ with Cs^+ ions, the outward current is now blocked and a prominent inward current carried by Calcium is present. This is the L-type calcium ion channel currents allowing calcium into the cells.
All values in (mM): CsCl, 132.96. MgCl2.6H20, 1. EGTA, 0.5 and HEPES, 10.
With reference to FIG. 5, isolated smooth muscle cells from the rabbit bladder were held at −60 mV and stepped to 0 mV for 500 ms. Pipette solutions contained Cs^+ to block outward K^+ currents.
For orientation: In patch-clamp work, channel activity is measured electrically.

The target of experiment [4] is BK channel (Homo sapiens, UniProt Q12791). As to conditions: applied to the inside of the membrane; cited from earlier work.
Where [5] appears, read: Table 2, 10 μM compound, inside-out patch.

Where only a bound is given, the exact number is not on record here.

Here are results for twelve compounds from patent US9877940B2, “Anthraquinone compounds and their uses” (DUNDALK INSTITUTE OF TECHNOLOGY, priority 2010, dated 2018).

T1 sequence (Q9BG98 whole entry): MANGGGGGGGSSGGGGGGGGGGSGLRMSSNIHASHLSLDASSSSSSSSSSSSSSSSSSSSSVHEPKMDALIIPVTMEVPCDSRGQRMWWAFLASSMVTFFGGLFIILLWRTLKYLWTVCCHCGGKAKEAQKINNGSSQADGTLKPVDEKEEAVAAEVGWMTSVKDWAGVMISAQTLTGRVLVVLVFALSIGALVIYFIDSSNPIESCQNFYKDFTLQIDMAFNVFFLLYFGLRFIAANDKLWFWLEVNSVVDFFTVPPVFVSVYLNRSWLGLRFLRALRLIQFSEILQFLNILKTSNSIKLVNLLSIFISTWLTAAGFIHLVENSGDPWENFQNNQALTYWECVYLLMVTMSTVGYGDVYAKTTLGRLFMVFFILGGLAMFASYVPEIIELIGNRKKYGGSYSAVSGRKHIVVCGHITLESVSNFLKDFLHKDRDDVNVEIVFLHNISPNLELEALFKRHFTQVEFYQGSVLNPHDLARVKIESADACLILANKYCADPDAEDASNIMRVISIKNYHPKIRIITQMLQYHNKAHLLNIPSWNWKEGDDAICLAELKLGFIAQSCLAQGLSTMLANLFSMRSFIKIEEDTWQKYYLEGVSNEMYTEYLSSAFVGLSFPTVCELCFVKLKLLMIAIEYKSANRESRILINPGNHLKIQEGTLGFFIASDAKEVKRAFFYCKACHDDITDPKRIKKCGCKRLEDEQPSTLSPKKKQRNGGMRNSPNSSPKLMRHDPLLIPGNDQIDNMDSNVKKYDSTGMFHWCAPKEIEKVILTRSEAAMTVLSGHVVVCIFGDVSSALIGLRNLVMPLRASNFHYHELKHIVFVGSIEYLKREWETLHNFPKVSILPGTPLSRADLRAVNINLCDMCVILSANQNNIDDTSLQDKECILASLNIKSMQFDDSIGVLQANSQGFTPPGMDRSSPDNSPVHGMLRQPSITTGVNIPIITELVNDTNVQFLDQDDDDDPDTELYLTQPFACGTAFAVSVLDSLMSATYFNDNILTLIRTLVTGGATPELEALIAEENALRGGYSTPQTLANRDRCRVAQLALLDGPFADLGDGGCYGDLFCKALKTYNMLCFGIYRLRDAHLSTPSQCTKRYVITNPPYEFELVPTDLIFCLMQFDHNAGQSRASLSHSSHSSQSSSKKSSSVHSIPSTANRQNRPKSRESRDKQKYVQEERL
Sequence of BK channel (Q12791 whole entry, species assumed): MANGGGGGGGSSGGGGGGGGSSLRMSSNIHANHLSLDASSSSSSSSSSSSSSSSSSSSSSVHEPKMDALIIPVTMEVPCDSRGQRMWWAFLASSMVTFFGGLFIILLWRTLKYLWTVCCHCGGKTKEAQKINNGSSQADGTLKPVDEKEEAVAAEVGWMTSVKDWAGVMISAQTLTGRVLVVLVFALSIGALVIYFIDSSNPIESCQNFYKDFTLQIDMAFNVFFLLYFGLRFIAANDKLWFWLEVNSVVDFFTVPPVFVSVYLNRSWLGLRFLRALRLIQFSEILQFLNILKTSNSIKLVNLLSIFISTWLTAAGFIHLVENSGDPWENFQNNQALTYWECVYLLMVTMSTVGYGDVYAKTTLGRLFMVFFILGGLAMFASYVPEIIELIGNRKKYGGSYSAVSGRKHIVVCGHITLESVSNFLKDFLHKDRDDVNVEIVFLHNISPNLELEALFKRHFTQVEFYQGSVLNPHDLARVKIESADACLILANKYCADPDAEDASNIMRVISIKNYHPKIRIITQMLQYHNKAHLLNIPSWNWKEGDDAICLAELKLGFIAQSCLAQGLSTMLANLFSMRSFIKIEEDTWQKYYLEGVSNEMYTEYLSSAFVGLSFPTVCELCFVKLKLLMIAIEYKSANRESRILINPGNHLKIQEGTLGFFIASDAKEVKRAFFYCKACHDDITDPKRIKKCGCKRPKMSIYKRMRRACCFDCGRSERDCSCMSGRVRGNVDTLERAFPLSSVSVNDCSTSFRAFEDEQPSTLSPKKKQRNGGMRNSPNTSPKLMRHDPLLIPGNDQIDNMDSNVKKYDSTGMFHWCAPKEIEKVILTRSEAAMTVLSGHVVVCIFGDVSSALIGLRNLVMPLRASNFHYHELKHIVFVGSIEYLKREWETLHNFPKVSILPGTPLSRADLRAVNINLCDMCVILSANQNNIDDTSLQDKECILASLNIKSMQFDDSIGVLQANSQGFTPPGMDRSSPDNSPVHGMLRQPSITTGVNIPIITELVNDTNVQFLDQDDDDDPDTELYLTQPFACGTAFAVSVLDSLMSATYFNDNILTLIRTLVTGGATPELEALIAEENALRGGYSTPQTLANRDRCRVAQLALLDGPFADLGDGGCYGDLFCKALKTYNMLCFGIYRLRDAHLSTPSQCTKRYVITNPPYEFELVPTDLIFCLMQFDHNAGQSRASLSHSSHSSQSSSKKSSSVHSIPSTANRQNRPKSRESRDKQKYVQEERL
Sequence of BK channel (Q16558 whole entry partner, species assumed): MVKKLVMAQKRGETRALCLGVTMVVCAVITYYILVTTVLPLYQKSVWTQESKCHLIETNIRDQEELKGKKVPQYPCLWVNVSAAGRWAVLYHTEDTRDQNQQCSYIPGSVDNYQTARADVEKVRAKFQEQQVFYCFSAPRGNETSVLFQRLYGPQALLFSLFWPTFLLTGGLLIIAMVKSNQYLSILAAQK

In the case of `Nc1c(S(=O)(=O)[O-])cc(Nc2ccccc2)c2c1C(=O)c1ccccc1C2=O.[Na+]` [Acid Blue 25, Sodium 1-Amino-9,10-Dioxo-4-(Phenylamino)-9,10-Dihydroanthracene-2-Sulfonate], the “ΔV1/2 (mV) in 100 nm Ca^2+” value in experiment [1] (Table 1, 10 μM compound, inside-out patch, V1/2 control vs drug) is −51.0 mV. Moreover, the “shifted the V1/2 by” value in experiment [1] (inside out patches, concentration not given) is listed as −56 mV. Further, the “amplitude of the outward BK current compared to control” value in experiment [2] is “enhances the amplitude of the BK current”.

With `Nc1c(S(=O)(=O)[O-])cc(Nc2cccc(C(F)(F)F)c2)c2c1C(=O)c1ccccc1C2=O.[Na+]` [SR-5-6, sodium 1-amino-9,10-dioxo-4-(3-(trifluoromethyl)phenylamino)-9,10-dihydroanthracene-2-sulfonate], the “inward L-type calcium current amplitude” value in experiment [3] is reported as “reduced in amplitude”.

Consider `Nc1c(S(=O)(=O)[O-])cc(Nc2ccc3c(c2)CCCC3)c2c1C(=O)c1ccccc1C2=O.[Na+]` [SR-5-69, sodium 1-amino-9,10-dioxo-4-((5,6,7,8-tetrahydronaphthalen-2-yl)amino)-9,10-dihydroanthracene-2-sulfonate], for which the “shift in the activation V1/2” value in experiment [1] (30 nM, example patch of FIG. 8A) is “very small shift”. For the same compound, the “shifted the V1/2 by” value in experiment [1] (1 μM) was found to be 110 mV. For the same compound, in experiment [1] (1 μM, example patch of FIG. 8A), the “V1/2 reached in the presence of the drug” value is listed as “approximately +5 mV”. Also, the “shift of the V1/2” value in experiment [1] (1 μM, example patch of FIG. 8A, hyperpolarising direction) is given as above −100 mV. Moreover, in experiment [1] (Table 2, 1 μM compound, inside-out patch), the “ΔV1/2 (mV) in 100 nm Ca^2+” value was −101.6 mV. For the same compound, the “dose dependence of effects on open probability and ΔV1/2 for BK channels” value in experiment [1] (increasing concentrations, inside-out patch) is listed as “dose-dependent”. Moreover, the “effect on BK channel activity, in words (SAR discussion based on V1/2 data)” value (shortened to “effect on BK channel activity, in words”) in experiment [1] is recorded as “dramatic increase in the activity”. In experiment [1] (n=4-6 patches containing BK channels, read-out: mean EC50 (Langmuir fit of mean V1/2 against concentration)), the EC50 turned out to be 95 nM.

As to `Nc1c(S(=O)(=O)[O-])cc(Nc2ccc3ccccc3c2)c2c1C(=O)c1ccccc1C2=O.[Na+]` [SR-5-72, sodium 1-amino-4-((naphthalen-2-yl)amino)-9,10-dioxo-9,10-dihydroanthracene-2-sulfonate], the “shifted the V1/2 by” value in experiment [1] (1 μM) was found to be 93 mV. In addition, in experiment [1] (setting [5]), the “ΔV1/2 (mV) in 100 nm Ca^2+” value is −103.8 mV. For the same compound, the “effect on BK channel activity, in words” value in experiment [1] is on record as “dramatic increase in the activity”.

Regarding `CC(C)(C)c1cccc(Nc2cc(S(=O)(=O)[O-])c(N)c3c2C(=O)c2ccccc2C3=O)c1.[Na+]` [SR-5-76, sodium 1-amino-4-((3-(tert-butyl)phenyl)amino)-9,10-dioxo-9,10-dihydroanthracene-2-sulfonate], the “ΔV1/2 (mV) in 100 nm Ca^2+” value in experiment [1] (setting [5]) is given as −94.9 mV. Moreover, the “effect on BK channel activity, in words” value in experiment [1] is “BK channel agonists”.

Take `Nc1c(C(=O)O)cc(Nc2cccc(C(F)(F)F)c2)c2c1C(=O)c1ccccc1C2=O` [SR-5-88, 1-amino-9,10-dioxo-4-((3-(trifluoromethyl)phenyl)amino)-9,10-dihydroanthracene-2-carboxylic acid]: the “ΔV1/2 (mV) in 100 nm Ca^2+” value in experiment [1] (setting [5]) is listed as −98.8 mV. The “effect on BK channel activity, in words” value in experiment [1] is listed as “activity was not altered”.

In the case of `Nc1c(S(=O)(=O)[O-])cc(Nc2cccc(-c3ccccc3)c2)c2c1C(=O)c1ccccc1C2=O.[Na+]` [SR-5-94, sodium 4-([1,1′-biphenyl]-3-ylamino)-1-amino-9,10-dioxo-9,10-dihydroanthracene-2-sulfonate], the “ΔV1/2 (mV) in 100 nm Ca^2+” value in experiment [1] (setting [5]) is on record as −60.0 mV.

For `CCc1ccccc1Nc1cc(S(=O)(=O)[O-])c(N)c2c1C(=O)c1ccccc1C2=O.[Na+]` [SR-5-96, sodium 1-amino-4-((2-ethylphenyl)amino)-9,10-dioxo-9,10-dihydroanthracene-2-sulfonate], the “ΔV1/2 (mV) in 100 nm Ca^2+” value in experiment [1] (setting [5]) is reported as −84.8 mV. In addition, the “effect on BK channel activity, in words” value in experiment [1] is listed as “BK channel agonists”.

With `CCc1ccc(Nc2cc(S(=O)(=O)[O-])c(N)c3c2C(=O)c2ccccc2C3=O)cc1.[Na+]` [SR-5-97, sodium 1-amino-4-((4-ethylphenyl)amino)-9,10-dioxo-9,10-dihydroanthracene-2-sulfonate], the “ΔV1/2 (mV) in 100 nm Ca^2+” value in experiment [1] (setting [5]) is recorded as −78.5 mV. The “effect on BK channel activity, in words” value in experiment [1] is on record as “BK channel openers”.

For `CC(C)c1ccccc1Nc1cc(S(=O)(=O)[O-])c(N)c2c1C(=O)c1ccccc1C2=O.[Na+]` [SR-5-98, sodium 1-amino-4((2-isopropylphenyl)amino)-9,10-dioxo-9,10-dihydroanthracene-2-sulfonate], the “ΔV1/2 (mV) in 100 nm Ca^2+” value in experiment [1] (setting [5]) is given as −120.0 mV. Moreover, in experiment [1], the “effect on BK channel activity, in words” value was “BK channel agonists”.

As to `CC(C)c1ccc(Nc2cc(S(=O)(=O)[O-])c(N)c3c2C(=O)c2ccccc2C3=O)cc1.[Na+]` [SR-5-99, sodium 1-amino-4-((4-isopropylphenyl)amino)-9,10-dioxo-9,10-dihydroanthracene-2-sulfonate], in experiment [1] (setting [5]), the “ΔV1/2 (mV) in 100 nm Ca^2+” value is reported as −83.4 mV. The “effect on BK channel activity, in words” value in experiment [1] is recorded as “BK channel openers”.

For the compound Basilen blue, the “BK channel activation, in words” value in experiment [4] is “moderately potent BK channel activator”.
